Patent publication US7241861B2, “High density lipoprotein-reactive peptides” (Japan Immunoresearch Laboratories Co., Ltd., priority 2001, dated 2007)

Tests used:
[1] = test system: RAW264 cells; experiment: Cholesterol efflux test in RAW264 cells loaded with acetylated LDL; format: cell-based, mouse; conditions: foam with acetylated LDL; peptide 20, 2.0 or 0.2 μg/mL, 24 hours; supernatant cholesterol (FIG. 4)
Procedure: The aforementioned peptides were examined with regard to cholesterol efflux effect from RAW264 cells (a model of atherosclerosis).
Specifically, RAW264 cells (mouse monocytic leukemia cell strain) were added to DMEM medium that had been supplemented with 10% FBS, to thereby prepare a specimen having a concentration of 4×10^5 cells/mL. An aliquot of the specimen (1 mL) was added to each well of a 12-well plate, followed by culture for two days in a CO2 incubator (37° C.). The medium in each well was removed, and the cells in the well were washed once with 1 mL of DMEM containing 0.2% BSA and 20 mM glutamine (hereinafter referred to as “DMEM”). Subsequently, a solution of acetylated LDL in DMEM (40 μg/mL, 1 mL) was added to each well, followed by culture for 24 hours in a CO2 incubator (37° C.), whereby acetylated LDL entered into the cells. The cells were washed twice with PBS supplemented with 0.2% BSA. Thereafter, a solution of dibutyl cAMP in DMEM (0.3 mM, 1 mL) was added to each well, followed by incubation for 2 hours in a CO2 incubator (37° C.).
The test peptide (20 μL) was added to each well so as to attain a final concentration of 20, 2.0, or 0.2 μg/mL, followed by culture for 24 hours in a CO2 incubator (37° C.).
After 24 hours, the supernatant of each well was collected in a microtube, and the microtube was centrifuged for five minutes at 10,000 rpm. The cholesterol level of the supernatant was measured by means of the autoanalyzer described above.
Each test peptide was dissolved in DMSO (5 mg/mL), and the thus-formed solution was diluted with DMEM so as to attain a concentration of 1 mg/mL. Subsequently, the resultant solution was diluted 10-fold or 100-fold with DMEM, to thereby prepare a test sample. Moreover, in order to prepare a control sample, only DMSO was diluted with DMEM so as to attain a final concentration of 0.4, 0.04, or 0.004%; and in order to prepare a positive control sample, delipid HDL was diluted with DMEM so as to attain a concentration of 2.5, 5.0, or 10 μg/mL.

[2] = test system: HDL cholesterol; experiment: Reactivity with HDL: HDL sample reacted with peptide-bound affinity gel, analysis of unbound fraction; format: binding, Human; conditions: for reduction of total cholesterol level of HDL: Example 5, total cholesterol level of applied HDL sample 12.7 mg/dl
Procedure: The peptide obtained in (1) above (B100FL, 0.1 mg) was added to affinity gel (25 μL) to which an anti-apo B-100 monoclonal antibody (JI-H) had been immobilized, whereby a B100FL-bound affinity gel was prepared. A control gel was prepared by treating gel with PBS (not containing B100FL) in a manner similar to the above.
Human plasma (1 mL) was added to affinity gel (2 mL) to which an anti-apo A-I monoclonal antibody had been immobilized, to thereby cause HDL to be specifically bound to the gel. The bound HDL was eluted with 3M sodium thiocyanate, and the buffer of the thus-obtained eluent was changed to PBS through use of a column for desalting, to thereby prepare an HDL sample.
The aforementioned anti-apo A-I monoclonal antibody immobilized affinity gel and anti-apo B-100 monoclonal antibody (JI-H) immobilized affinity gel were prepared in accordance with a conventional method (Japanese Patent Publication (kokoku) No. 7-104351).
The HDL sample (containing 20 μg of apo A-I) was reacted with the B100FL-bound affinity gel for 30 minutes at room temperature. Subsequently, the reaction mixture was left to stand for 15 minutes to thereby cause the gel to precipitate, to thereby remove the gel from the reaction mixture.
Total cholesterol level: Total cholesterol level was determined with a reagent for measuring cholesterol level (L-TCII, Kyowa Medex Co., Ltd.) by means of an autoanalyzer (TBA20R; Toshiba).
Lipoprotein analysis: Lipoprotein was analyzed through HPLC of a lipoprotein analysis system (Lipopropax XL, eluent: TSK eluent LP-1, 1 mL/min., sample volume: 100 μL; Tosoh) by monitoring colors produced by cholesterol.
Protein concentration: Each protein concentration was determined by measuring absorbance (OD280); or through the Lowry method in which each sample (which had been delipidized with ethanol-ether) was subjected to color reaction.
Protein analysis: Protein was analyzed by SDS-gel electrophoresis. Specifically, each sample was subjected to delipidizing treatment and solubilized with 1% SDS, followed by treatment with a buffer (2% SDS/10% glycerol/0.005% BPB/20% 2-mercaptoethanol), to thereby prepare a sample for electrophoresis. The resultant sample was electrophoresed in a 4-20% gradient gel in accordance with a conventional method.
In a manner similar to that described in Example 1 (3), reactivity of PS509 (synthesized in Example 2) with HDL was examined (as a test peptide, B-100FL or PS509 was employed, and the total cholesterol level of the applied HDL sample was 12.7 mg/dl).

[3] = test system: anti-apo B-100 monoclonal antibody (JI-H); experiment: Reactivity with anti-apo B-100 monoclonal antibody (JI-H) by ELISA on peptide-coated plate; format: binding; conditions: OD450 vs immobilized peptide concentration (FIG. 1)
Source text: (2) Reactivity with anti-apo b-100 Monoclonal Antibody (JI-H: J. Clin. Ligand Assay, 19 (3), 177 (1999))
The reactivity was confirmed through ELISA in accordance with a conventional method by using a plate coated with the peptide obtained above (B100FL) (see Japanese Patent Application Laid-Open (kokai) No. 4-104798).

[4] = test system: quail arteriosclerosis model; experiment: Effect test by use of an arteriosclerosis model (high-cholesterol-fed quails, aortic arch histology); format: in vivo
Source text: Cholesterol (Wako Pure Chemical Industries, Ltd.) and corn oil (Corn Germ Oil 100; Ajinomoto Co., Inc.) were incorporated into a commercially available feed (product of Natural Pet Foods, “Chicks and nestlings (Quail)”) so as to attain final concentrations of 2% and 15%, respectively, to thereby prepare a high-cholesterol feed.
Healthy quails were bred while being allowed to freely intake the high-cholesterol feed for eight weeks. From five weeks after the beginning of breeding, a solution of the test peptide (B-100FL) in saline (1.0 mg/mL) was administered to the brachial (wing) vein (200 μL; 200 μg/body) twice a week at the interval of two through three days. In a manner similar to that described above, only saline was administered to the quails of a control group.
After the quails had been bred for eight weeks, the head of each quail was cut for exsanguination, and an aorta sample was obtained. The aorta sample was immediately fixed in a fixing solution (10% formalin) for three days. Subsequently, a tissue specimen (a frozen section having a thickness of 4 μm) of the aortic arch (where arteriosclerosis foci are most likely to occur) was prepared. The tissue specimen was subjected to hematoxylin-and-eosin staining (routine staining), and to oil-red staining (fat staining), followed by examination under a microscope.

[5] = 200 μg/body i.v. twice a week from week 5 to 8, aortic arch section

LLDQLGTTISFERINDVLEHVKHF (LLDQLGTTISFERINDVLEHVKHF) [PS506, Apo B-100 position 2,297–2,320]
cholesterol efflux effect from RAW264 cells [1]: not to exhibit the effect

LLDQLGTTIS FERIND (LLDQLGTTISFERIND) [PS507, Apo B-100 position 2,297–2,312]
cholesterol efflux effect from RAW264 cells [1]: not to exhibit the effect

LLDQLGTTISFERINDVLEHVKHFVINLIG (LLDQLGTTISFERINDVLEHVKHFVINLIG) [PS505, Apo B-100 position 2,297–2,326]
cholesterol efflux effect from RAW264 cells [1]: strong cholesterol efflux effect

DFEVAEKINA FRAKVHEL IE R [P21]
cholesterol efflux effect from RAW264 cells [1]: not to exhibit the effect

FERINDVLEHVKHFVINLIGDFEVAEKINA (FERINDVLEHVKHFVINLIGDFEVAEKINA) [PS509, Apo B-100 position 2,307–2,336]
reduction of total cholesterol level of HDL [2]: about 48 percentage points | cholesterol efflux effect from RAW264 cells [1]: strong cholesterol efflux effect

EKINA FRAKVHEL IE R [PS508]
cholesterol efflux effect from RAW264 cells [1]: not to exhibit the effect

LLDQLGTTISFERINDVLEHVKHFVINLIGDFEVAEKINAFRAKVHEL IE R (LLDQLGTTISFERINDVLEHVKHFVINLIGDFEVAEKINAFRAKVHELIER) [P51, 51 amino acid residues, the 2,297th to the 2,347th amino acid residues of apo B-100]
reactivity with JI-H [3]: specific reactivity | reduction of total cholesterol level of HDL [2]: about 72 percentage points | peak attributed to cholesterol (HDL-C) in lipoprotein analysis ([2]; FIG. 2, HDL sample treated with B100FL-bound gel): does not include a peak | total cholesterol level relative to HDL sample treated with the control gel ([2]; HDL sample treated with B100FL-bound gel vs control gel): about 1/15 | HDL-C ([2]; HDL-cholesterol by lipoprotein analysis (HPLC) of fraction that did not bind to the B100FL gel): 243.2 Area | interaction with cholesterol and cholesterol ester of HDL ([2]; conclusion from cholesterol, lipoprotein and SDS-gel analysis): has an effect of effluxing cholesterol and cholesterol ester from apoprotein particles of HDL | Cholesterol (total cholesterol level) ([2]; fraction that did not bind to the B100FL gel, HDL sample containing 20 μg apo A-I, 30 min room temperature): 0.25 mg/dL | cholesterol efflux effect from RAW264 cells [1]: strong cholesterol efflux effect | lipid accumulation in the internal tunica ([4]; 200 μg/body i.v. (wing vein) twice a week from week 5 to 8 of high-cholesterol feed, aortic arch section): a small amount of lipid accumulation was observed | morphological disorder of the vessel internal tunica [4, 5]: no morphological disorder | thickening of the internal tunica and lipid infiltration into the middle tunica [4, 5]: absent
